Results from patent US10434112B2, “Use of agonists of formyl peptide receptor 2 for treating dermatological diseases” (Allergan, Inc., priority 2013, dated 2019).

Molecular target: human FPR2 receptor (Homo sapiens (Human), UniProt P25090)
Assay: FLIPR Ca+2 response in HEK-Gα16 cells stably expressing the human FPR2 receptor
Assay type: cell-based
Set-up: FPR2 (% eff): unit not given here
Conditions: Table 4; for FPR2 (% eff): value in brackets, given mostly as fraction
Protocol: FLIPR: HEK-Gα16 cells stably expressing the human FPR2 receptor was utilized. Cells were plated into 384-well poly-D-lysine coated plates at a density of 18,000 cells per well one day prior to use. The growth media was DMEM medium supplemented with 10% fetal bovine serum (FBS), 1% antibiotic-antimycotic, 50 μg/ml hygromycin, and 400 μg/ml geneticin. On the day of the experiment, the cells were washed twice with Hank's Balanced Salt Solution supplemented with 20 mM HEPES (HBSS/hepes buffer). The cells were then dye loaded with 2 μM Fluo-4 diluted in the HBSS/Hepes buffer and incubated at 37° C. for 40 minutes. Extracellular dye was removed by washing the cell plates four times prior to placing the plates in the FLIPR (Fluorometric Imaging Plate Reader, Molecular Devices). Ligands were diluted in HBSS/Hepes buffer and prepared in 384-well microplates. Data for Ca^+2 responses were obtained in relative fluorescence units.

Chain of human FPR2 receptor (P25090 whole entry): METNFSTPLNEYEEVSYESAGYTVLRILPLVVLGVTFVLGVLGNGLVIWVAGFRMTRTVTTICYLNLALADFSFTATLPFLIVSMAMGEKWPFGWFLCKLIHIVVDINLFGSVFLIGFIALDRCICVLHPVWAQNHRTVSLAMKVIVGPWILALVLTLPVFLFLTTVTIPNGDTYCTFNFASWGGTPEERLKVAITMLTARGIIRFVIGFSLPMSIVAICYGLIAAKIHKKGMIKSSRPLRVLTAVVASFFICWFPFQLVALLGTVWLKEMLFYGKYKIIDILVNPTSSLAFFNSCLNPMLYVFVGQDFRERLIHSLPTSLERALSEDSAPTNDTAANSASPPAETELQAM

Row | SMILES | FPR2 (% eff) | EC50
1 | CCC[C@H](NC(=O)Nc1ccc(Br)cc1)C(=O)NCC(=O)O [Compound 2, {[(2S)-2-{[(4-bromophenyl)carbamoyl]amino}pentanoyl]amino}acetic acid] | 0.91 | –
2 | CSc1ccc(NC(=O)Nc2ccc3c(c2)C(=O)N(CCc2c[nH]cn2)C(c2ccc(C#N)cc2)C3)cc1 (stereo not shown) [Compound 17, 1-{3-(4-cyanophenyl)-2-[2-(1H-imidazol-4-yl)ethyl]-1-oxo-1,2,3,4-tetrahydroisoquinolin-7-yl}-3-[4-(methylsulfanyl)phenyl]urea] | 0.92 | –
3 | NC(=O)C1C(C(=O)Nc2ccc(Br)cc2)C2CCC1C21CC1 (stereo not shown) [Compound 30, N-(4-bromophenyl)spiro[bicyclo[2.2.1]heptane-7,1′-cyclopropane]-2,3-dicarboxamide] | 0.96 | –
4 | CNC(=O)C1C(C(=O)Nc2ccc(Br)cc2)C2CCC1C21CC1 (stereo not shown) [Compound 46, N-(4-bromophenyl)-N′-methylspiro[bicyclo[2.2.1]heptane-7,1′-cyclopropane]-2,3-dicarboxamide] | 1.0 | –
5 | O=C(Nc1ccc(Br)cc1)[C@@H]1C2CCC([C@@H]1C(=O)O)C21CC1 (single isomer, unassigned) [Compound 44] | 0.98 | < 1 nM
6 | CSc1ccc(NC(=O)Nc2ccc3c(c2)C(=O)N(CCc2c[nH]cn2)C(c2ccc(Cl)cn2)C3)cc1 (stereo not shown) [Compound 32, 1-{3-(5-chloropyridin-2-yl)-2-[2-(1H-imidazol-4-yl)ethyl]-1-oxo-1,2,3,4-tetrahydroisoquinolin-7-yl}-3-[4-(methylsulfanyl)phenyl]urea] | 0.91 | –
7 | CC(C)C1(CC(=O)NCCC(=O)O)NC(=O)N(NC(=O)Nc2ccc(Br)cc2)C1=O (stereo not shown) [Compound 147, 3-({[1-{[(4-bromophenyl)carbamoyl]amino}-2,5-dioxo-4-(propan-2-yl)imidazolidin-4-yl]acetyl}amino)propanoic acid] | 0.99 | –
8 | CC1(CCc2cccc(O)c2)NC(=O)N(NC(=O)Nc2ccc(Br)cc2F)C1=O (stereo not shown) [Compound 107, 1-(4-bromo-2-fluorophenyl)-3-{4-[2-(3-hydroxyphenyl)ethyl]-4-methyl-2,5-dioxoimidazolidin-1-yl}urea] | 0.79 | –
9 | CC(C)C1(CO)NC(=O)N(NC(=O)Nc2ccc(Br)cc2)C1=O (stereo not shown) [Compound 132, 1-(4-bromophenyl)-3[4-(hydroxymethyl)-2,5-dioxo-4-(propan-2-yl)imidazolidin-1-yl]urea] | 0.86 | –
10 | O=C(O)C1C(C(=O)Nc2ccc(I)cc2)C2CCC1C21CC1 (stereo not shown) [Compound 15, 3-[(4-iodophenyl)carbamoyl]spiro [bicyclo[2.2.1]heptane-7,1′-cyclopropane]-2-carboxylic acid] | 0.87 | –
11 | CCOP(=O)(CNC(=O)[C@H](CC(C)C)NC(=O)Nc1ccc(C(F)(F)F)cc1)OCC [Compound 134, diethyl ({[(2S)-4-methyl-2-({[4-(trifluoromethyl)phenyl]carbamoyl}amino)pentanoyl]amino}methyl)phosphonate] | 0.97 | –
12 | CC[C@H](C)[C@H](NC(=O)Nc1ccc(Br)cc1)C(=O)NCC(C)=O [Compound 63, (2S,3S)-2-{[(4-bromophenyl)carbamoyl]amino}-3-methyl-N-(2-oxopropyl)pentanamide] | 0.97 | –
13 | CCC[C@H](NC(=O)Nc1ccc(Br)cc1)C(=O)NCP(=O)(OC(C)C)OC(C)C [Compound 125, dipropan-2-yl ({[(2S)-2-{[(4-bromophenyl)carbamoyl]amino}pentanoyl]amino}methyl) phosphonate] | 1.0 | –
14 | CC(C)C1(CC(=O)NCCO)NC(=O)N(NC(=O)Nc2ccc(Br)cc2F)C1=O (stereo not shown) [Compound 148, 2-[1-{[(4-bromo-2-fluorophenyl)carbamoyl]amino}-2,5-dioxo-4-(propan-2-yl)imidazolidin-4-yl]-N-(2-hydroxyethyl)acetamide] | 0.98 | –
15 | CCC1(CCc2ccccc2C(=O)O)NC(=O)N(NC(=O)Nc2ccc(Br)cc2F)C1=O (stereo not shown) [Compound 146, 2-[2-(1-{[(4-bromo-2-fluorophenyl)carbamoyl]amino}-4-ethyl-2,5-dioxoimidazolidin-4-yl)ethyl]benzoic acid] | 1.0 | –
16 | CSc1ccc(NC(=O)C2C(C(=O)O)C3CCC2C32CC2)cc1 (stereo not shown) [Compound 29, 3-{[4-(methylsulfanyl)phenyl]carbamoyl}spiro[bicyclo[2.2.1]heptane-7,1′-cyclopropane]-2-carboxylic acid] | 0.96 | 7 nM
17 | O=C(Nc1ccc(Br)cc1)NN1C(=O)NC(C2CC2)(C2CC2)C1=O [Compound 65, 1-(4-bromophenyl)-3-(4,4-dicyclopropyl-2,5-dioxoimidazolidin-1-yl)urea] | 1.0 | –

Row | SMILES | FPR2 (% eff) | EC50
18 | CCC[C@H](NC(=O)Nc1ccc(Br)cc1F)C(=O)NCC(=O)O [Compound 74, {[(2S)-2-{[(4-bromo-2-fluorophenyl)carbamoyl]amino}pentanoyl]amino}acetic acid] | 0.91 | –
19 | CC(C)C1(CCc2ccccc2C(=O)O)NC(=O)N(NC(=O)Nc2ccc(Br)cc2)C1=O (stereo not shown) [Compound 151, 2-{2-[1-{[(4-bromophenyl)carbamoyl]amino}-2,5-dioxo-4-(propan-2-yl)imidazolidin-4-yl]ethyl}benzoic acid] | 1.0 | –
20 | CC(C)C1(C(C)C)NC(=O)N(NC(=O)Nc2ccc(Br)cc2)C1=O [Compound 64, 1-(4-bromophenyl)-3-[2,5-dioxo-4,4-di(propan-2-yl)imidazolidin-1-yl]urea] | 1.0 | –
21 | CCC1(CC)NC(=O)N(NC(=O)Nc2ccc(Br)cc2)C1=O [Compound 49, 1-(4-bromophenyl)-3-(4,4-diethyl-2,5-dioxoimidazolidin-1-yl)urea] | 0.98 | –
22 | CC(C)C[C@H](NC(=O)Nc1ccc(Br)cc1)C(=O)NCS(=O)(=O)O [Compound 127, {[(2S)-2-{[(4-bromophenyl)carbamoyl]amino}4-methylpentanoyl]amino} methanesulfonic acid] | 0.91 | –
23 | CC[C@H](C)[C@H](NC(=O)Nc1ccc(Br)cc1)C(=O)NCC(N)=O [Compound 60, (2S,3S)-N-(2-amino-2-oxoethyl)-2-{[(4-bromophenyl)carbamoyl]amino}-3-methylpentanamide] | 0.91 | –
24 | CSc1ccc(NC(=O)Nc2ccc3c(c2)C(=O)N(CCCN)C(c2ccc(C#N)cc2)C3)cc1 (stereo not shown) [Compound 16, 1-[2-(3-aminopropyl)-3-(4-cyanophenyl)-1-oxo-1,2,3,4-tetrahydroisoquinolin-7-yl]-3-[4-(methylsulfanyl)phenyl]urea] | 0.70 | –
25 | CC(C)C[C@H](NC(=O)Nc1ccc(C(F)(F)F)cc1)C(=O)NCc1nnn[nH]1 [Compound 136, (2S)-4-methyl-N-(1H-tetrazol-5-ylmethyl)-2-({[4-(trifluoromethyl)phenyl]carbamoyl}amino)pentanamide] | 0.96 | –
26 | CC(C)C[C@H](NC(=O)Nc1ccc(Br)cc1)C(=O)N(C)CC(=O)O [Compound 155, {[(2S)-2-{[(4-bromophenyl)carbamoyl]amino}-4-methylpentanoyl](methyl)amino}acetic acid] | 1.0 | –
27 | O=C(Nc1ccc(Br)cc1)N[C@@H](Cc1ccccc1)C(=O)NCCO [Compound 58, (2S)-2-{[(4-bromophenyl)carbamoyl]amino}-N-(2-hydroxyethyl)-3-phenylpropanamide] | 0.86 | –
28 | O=C(O)CNC(=O)[C@H](Cc1c[nH]c2ccccc12)NC(=O)Nc1ccc(Br)cc1 (stereo in doubt) [Compound 150, {[2-{[(4-bromophenyl)carbamoyl]amino}-3-(1H-indol-3-yl)propanoyl]amino}acetic acid] | 98 | 1.4 nM
29 | CC(C)C[C@H](NC(=O)Nc1ccc(C(F)(F)F)cc1)C(=O)NC(C)(C)C(=O)O [Compound 139, 2-methyl-2-{[(2S)-4-methyl-2-({[4-(trifluoromethyl)phenyl]carbamoyl}amino)pentanoyl]amino}propanoic acid] | 0.92 | –
30 | CC(C)C[C@H](NC(=O)Nc1ccc(Br)cc1)C(=O)NCC(N)=O [Compound 77, (2S)-N-(2-amino-2-oxoethyl)-2-{[(4-bromophenyl)carbamoyl]amino}-4-methylpentanamide] | 1.0 | 1.1 nM
31 | CC1(CCc2ccc(O)cc2)NC(=O)N(NC(=O)Nc2ccc(Br)cc2)C1=O (stereo not shown) [Compound 86, 1-(4-bromophenyl)-3-{4-[2-(4-hydroxyphenyl)ethyl]-4-methyl-2,5-dioxoimidazolidin-1-yl}urea] | 1.0 | –
32 | CCOP(=O)(CNC(=O)[C@H](CC(C)C)NC(=O)Nc1ccc(SC)cc1)OCC [Compound 138, diethyl ({[(2S)-4-methyl-2-({[4-(methylsulfanyl)phenyl]carbamoyl}amino)pentanoyl]amino}methyl)phosphonate] | 0.91 | –
33 | CC(C)C[C@H](NC(=O)Nc1ccc(Br)cc1)C(=O)N[C@H](C)CO [Compound 96, (2S)-2-{[(4-bromophenyl)carbamoyl]amino}-N-[(2R)-1-hydroxypropan-2-yl]-4-methylpentanamide] | 1.0 | –
